# Results as given in patent US9511068B2, “Composition for treating or preventing diseases caused by vascular permeability, containing imatinib or pharmaceutically acceptable salt thereof as active ingredient” (AJOU UNIVERSITY INDUSTRY - ACADEMIC COOPERATION FOUNDATION, priority 2012, dated 2016).
# Where a name gives a salt, the structure may show the parent alone.
# Tested on: retinal vascular permeability
# Assay: Retinal vascular permeability (FITC-dextran leakage) in STZ-induced diabetic retinopathy rat models
# Type: in vivo, Sprague Dawley (SD) rats
# Settings: STZ 200 mg/kg i.p. rats; retina treated with 50, 100 or 250 μg imatinib mesylate at the same time as STZ; observed after 2 weeks by fluorescence microscope
# Method: Sprague Dawley (SD) rats were administered intraperitoneally with streptozotocin (STZ; Sigma) at a dose of 200 mg/kg (control group), or were injected with STZ while the retina of the animal models were treated with 50, 100 or 250 μg of imatinib mesylate (Novartis, Switzerland) (test groups).
# Meanwhile, after the animal models (control and test groups) were housed for 2 weeks, the animal models were anesthetized, and fluorescein isothiocyanate (FITC)-labeled dextran was injected intracardiacally so that the fluorescent substance flowed along the blood vessels.
smiles,measurement,value
Cc1ccc(NC(=O)c2ccc(CN3CCN(C)CC3)cc2)cc1Nc1nccc(-c2cccnc2)n1 [imatinib mesylate],leak degree of the fluorescent substance (FITC-labeled dextran) in the retina / vascular permeability,significantly reduced
